Entries after “also recorded” stand apart in the source; their conditions may differ.
Assays:
[1] = test system: murine fibroblast (NIH-3T3) cells; assay: MTT cytotoxicity assay in murine fibroblasts; format: cell-based; settings: for effect on NIH-3T3 cell viability (in words): MTT, 24 h exposure, 25 to 800 µg/mL; for Emax at 800 µg/mL: Mus musculus, NIH3T3, 24 h, decrease in cell viability at the maximum concentration tested (800 μg/mL), NIH-3T3, 24 h
Procedure: Next, the medium was removed and various concentrations (25–800 µg/mL) of samples reconstituted in 3% DMSO were applied. DMSO (3%) was used as a control. The plates were incubated for 24 h. Next, 15 µL of MTT solution (5 mg/mL in phosphate buffer) was added to each well and the plates were incubated for 2 h. Medium was discarded and 100 µL of DMSO was added to each well. Absorbance was determined using a spectrophotometer with a microplate reader at 595 nm (Molecular Devices Corporation, Sunnyvale, CA, USA).

[2] = test system: mouse BALB/cN macrophage (J774A.1) cell line; assay: Cell viability by flow cytometry in macrophages; settings: 24 h, 25, 100 and 400 µg/mL, vs DMEM control
[3] = test system: 49-day-old S. mansoni adult worms; assay: In vitro experiments with adult worms of S. mansoni (mortality, motor activity); format: cell-based, Schistosoma mansoni; settings: for Dead Worms (%) F / Motor Activity Reduction (%) Significant F / Motor Activity Reduction (%) Slight F: female worms; for Dead Worms (%) M / Motor Activity Reduction (%) Significant M / Motor Activity Reduction (%) Slight M: male worms; for activity against S. mansoni adult worms (in words): analogues 50, 25, 10 and 5 μM, piplartine 5 and 10 μM, up to 96 h
Procedure: The Belo Horizonte (BH) strain of S. mansoni was maintained in Biomphalaria glabrata snails and Mesocricetus auratus hamsters at the Adolfo Lutz Institute (São Paulo, Brazil) according to standard procedures. Detailed methods for the infection of molluscs and hamsters, as well as for the recovery of parasites, were as described previously. Briefly, the intermediate host snails were exposed to light for approximately 3 h and cercariae of S. mansoni were subsequently harvested. […] All animals were handled in strict accordance with good animal practice as defined by the Animal Use Ethics Committee. The preparations and culture of schistosomes was performed as previously described. Briefly, hamsters were killed 49 days after infection for the recovery of adult schistosomes. Next, fresh adult worm pairs (male and female) were washed and placed in a 24-well culture plate (TPP, St. […] Adult schistosomes were maintained continuously in medium (with or without drugs) for 96 h as described below. In vitro assays in S. mansoni adults were performed with mated males and females. The worm pairs obtained from the infusion hamsters were washed twice with RPMI 1640 medium containing 200 U/mL penicillin, 200 μg/mL streptomycin and 2 μg/mL amphotericin B (Vitrocell, Campinas, Brazil). The mated parasites were then transferred into 24-well cell culture plates (TPP, St. […] Cultures of adult worms were monitored by microscopy or magnifying glass. The effect of the drug was assessed with emphasis on changes in worm motor activity and death of worms as previously described.

COc1cc(/C=C/C(=O)N2CCCC2)cc(OC)c1OC [Compound 1G]
effect on NIH-3T3 cell viability (in words) [1]: considerable reduction in cell viability at concentrations of 400 and 800 μg/mL; also recorded: showed toxicity at 200, 400 and 800 μg/mL | Emax at 800 µg/mL [1]: 95.69 ± 0.79% | effect on J774A.1 cell viability (in words) [2]: significantly altered (p < 0.05) cell viability in comparison with the negative control, but not in a toxic manner | Dead Worms (%) F ([3]; 5 µM, 24 h): 0% | Motor Activity Reduction (%) Significant F ([3]; 5 µM, 24 h): 0% | Motor Activity Reduction (%) Slight F ([3]; 5 µM, 24 h): 0% | Dead Worms (%) M ([3]; 5 µM, 24 h): 0% | Motor Activity Reduction (%) Significant M ([3]; 5 µM, 24 h): 0% | Motor Activity Reduction (%) Slight M ([3]; 5 µM, 24 h): 0% | Dead Worms (%) F ([3]; 5 µM, 48 h): 0% | Motor Activity Reduction (%) Significant F ([3]; 5 µM, 48 h): 0% | Motor Activity Reduction (%) Slight F ([3]; 5 µM, 48 h): 0% | Dead Worms (%) M ([3]; 5 µM, 48 h): 0% | Motor Activity Reduction (%) Significant M ([3]; 5 µM, 48 h): 0% | Motor Activity Reduction (%) Slight M ([3]; 5 µM, 48 h): 0% | Dead Worms (%) F ([3]; 5 µM, 72 h): 0% | Motor Activity Reduction (%) Significant F ([3]; 5 µM, 72 h): 0% | Motor Activity Reduction (%) Slight F ([3]; 5 µM, 72 h): 0% | Dead Worms (%) M ([3]; 5 µM, 72 h): 0% | Motor Activity Reduction (%) Significant M ([3]; 5 µM, 72 h): 0% | Motor Activity Reduction (%) Slight M ([3]; 5 µM, 72 h): 0% | Dead Worms (%) F ([3]; 5 µM, 96 h): 0% | Motor Activity Reduction (%) Significant F ([3]; 5 µM, 96 h): 0% | Motor Activity Reduction (%) Slight F ([3]; 5 µM, 96 h): 0% | Dead Worms (%) M ([3]; 5 µM, 96 h): 0% | Motor Activity Reduction (%) Significant M ([3]; 5 µM, 96 h): 0% | Motor Activity Reduction (%) Slight M ([3]; 5 µM, 96 h): 0% | Dead Worms (%) F ([3]; 10 µM, 24 h): 0% | Motor Activity Reduction (%) Significant F ([3]; 10 µM, 24 h): 0% | Motor Activity Reduction (%) Slight F ([3]; 10 µM, 24 h): 0% | Dead Worms (%) M ([3]; 10 µM, 24 h): 0% | Motor Activity Reduction (%) Significant M ([3]; 10 µM, 24 h): 0% | Motor Activity Reduction (%) Slight M ([3]; 10 µM, 24 h): 0% | Dead Worms (%) F ([3]; 10 µM, 48 h): 0% | Motor Activity Reduction (%) Significant F ([3]; 10 µM, 48 h): 0% | Motor Activity Reduction (%) Slight F ([3]; 10 µM, 48 h): 0% | Dead Worms (%) M ([3]; 10 µM, 48 h): 0% | Motor Activity Reduction (%) Significant M ([3]; 10 µM, 48 h): 0% | Motor Activity Reduction (%) Slight M ([3]; 10 µM, 48 h): 0% | Dead Worms (%) F ([3]; 10 µM, 72 h): 0% | Motor Activity Reduction (%) Significant F ([3]; 10 µM, 72 h): 0% | Motor Activity Reduction (%) Slight F ([3]; 10 µM, 72 h): 0% | Dead Worms (%) M ([3]; 10 µM, 72 h): 0% | Motor Activity Reduction (%) Significant M ([3]; 10 µM, 72 h): 0% | Motor Activity Reduction (%) Slight M ([3]; 10 µM, 72 h): 0% | Dead Worms (%) F ([3]; 10 µM, 96 h): 0% | Motor Activity Reduction (%) Significant F ([3]; 10 µM, 96 h): 0% | Motor Activity Reduction (%) Slight F ([3]; 10 µM, 96 h): 0% | Dead Worms (%) M ([3]; 10 µM, 96 h): 0% | Motor Activity Reduction (%) Significant M ([3]; 10 µM, 96 h): 0% | Motor Activity Reduction (%) Slight M ([3]; 10 µM, 96 h): 0% | Dead Worms (%) F ([3]; 25 µM, 24 h): 0% | Motor Activity Reduction (%) Significant F ([3]; 25 µM, 24 h): 0% | Motor Activity Reduction (%) Slight F ([3]; 25 µM, 24 h): 0% | Dead Worms (%) M ([3]; 25 µM, 24 h): 0% | Motor Activity Reduction (%) Significant M ([3]; 25 µM, 24 h): 0% | Motor Activity Reduction (%) Slight M ([3]; 25 µM, 24 h): 0% | Dead Worms (%) F ([3]; 25 µM, 48 h): 0% | Motor Activity Reduction (%) Significant F ([3]; 25 µM, 48 h): 0% | Motor Activity Reduction (%) Slight F ([3]; 25 µM, 48 h): 0% | Dead Worms (%) M ([3]; 25 µM, 48 h): 0% | Motor Activity Reduction (%) Significant M ([3]; 25 µM, 48 h): 0% | Motor Activity Reduction (%) Slight M ([3]; 25 µM, 48 h): 0% | Dead Worms (%) F ([3]; 25 µM, 72 h): 0% | Motor Activity Reduction (%) Significant F ([3]; 25 µM, 72 h): 0% | Motor Activity Reduction (%) Slight F ([3]; 25 µM, 72 h): 0% | Dead Worms (%) M ([3]; 25 µM, 72 h): 0% | Motor Activity Reduction (%) Significant M ([3]; 25 µM, 72 h): 0% | Motor Activity Reduction (%) Slight M ([3]; 25 µM, 72 h): 0% | Dead Worms (%) F ([3]; 25 µM, 96 h): 0% | Motor Activity Reduction (%) Significant F ([3]; 25 µM, 96 h): 0% | Motor Activity Reduction (%) Slight F ([3]; 25 µM, 96 h): 0% | Dead Worms (%) M ([3]; 25 µM, 96 h): 0% | Motor Activity Reduction (%) Significant M ([3]; 25 µM, 96 h): 0% | Motor Activity Reduction (%) Slight M ([3]; 25 µM, 96 h): 0% | Dead Worms (%) F ([3]; 50 µM, 24 h): 0% | Motor Activity Reduction (%) Significant F ([3]; 50 µM, 24 h): 0% | Motor Activity Reduction (%) Slight F ([3]; 50 µM, 24 h): 0% | Dead Worms (%) M ([3]; 50 µM, 24 h): 0% | Motor Activity Reduction (%) Significant M ([3]; 50 µM, 24 h): 0% | Motor Activity Reduction (%) Slight M ([3]; 50 µM, 24 h): 0% | Dead Worms (%) F ([3]; 50 µM, 48 h): 0% | Motor Activity Reduction (%) Significant F ([3]; 50 µM, 48 h): 0% | Motor Activity Reduction (%) Slight F ([3]; 50 µM, 48 h): 0% | Dead Worms (%) M ([3]; 50 µM, 48 h): 0% | Motor Activity Reduction (%) Significant M ([3]; 50 µM, 48 h): 0% | Motor Activity Reduction (%) Slight M ([3]; 50 µM, 48 h): 0% | Dead Worms (%) F ([3]; 50 µM, 72 h): 0% | Motor Activity Reduction (%) Significant F ([3]; 50 µM, 72 h): 0% | Motor Activity Reduction (%) Slight F ([3]; 50 µM, 72 h): 0% | Dead Worms (%) M ([3]; 50 µM, 72 h): 0% | Motor Activity Reduction (%) Significant M ([3]; 50 µM, 72 h): 0% | Motor Activity Reduction (%) Slight M ([3]; 50 µM, 72 h): 0% | Dead Worms (%) F ([3]; 50 µM, 96 h): 0% | Motor Activity Reduction (%) Significant F ([3]; 50 µM, 96 h): 0% | Motor Activity Reduction (%) Slight F ([3]; 50 µM, 96 h): 0% | Dead Worms (%) M ([3]; 50 µM, 96 h): 0% | Motor Activity Reduction (%) Significant M ([3]; 50 µM, 96 h): 0% | Motor Activity Reduction (%) Slight M ([3]; 50 µM, 96 h): 0% | activity against S. mansoni adult worms (in words) [3]: did not exhibit antischistosome activity at the concentrations tested

CCCCOC(=O)/C=C/C=C/c1cc(OC)c(OC)c(OC)c1 [Compound 19A]
effect on NIH-3T3 cell viability (in words) [1]: did not exert significant effects on mammalian cell viability at the tested concentrations | Emax at 800 µg/mL [1]: < 50% | effect on J774A.1 cell viability (in words) [2]: did not reduce cell viability at the same concentrations | Dead Worms (%) F ([3]; 25 µM, 24 h): 0% | Motor Activity Reduction (%) Significant F ([3]; 25 µM, 24 h): 0% | Motor Activity Reduction (%) Slight F ([3]; 25 µM, 24 h): 0% | Dead Worms (%) M ([3]; 25 µM, 24 h): 0% | Motor Activity Reduction (%) Significant M ([3]; 25 µM, 24 h): 0% | Motor Activity Reduction (%) Slight M ([3]; 25 µM, 24 h): 0% | Dead Worms (%) F ([3]; 50 µM, 24 h): 0% | Motor Activity Reduction (%) Significant F ([3]; 50 µM, 24 h): 0% | Motor Activity Reduction (%) Slight F ([3]; 50 µM, 24 h): 0% | Dead Worms (%) M ([3]; 50 µM, 24 h): 0% | Motor Activity Reduction (%) Significant M ([3]; 50 µM, 24 h): 0% | Motor Activity Reduction (%) Slight M ([3]; 50 µM, 24 h): 0% | Dead Worms (%) F ([3]; 50 µM, 48 h): 0% | Motor Activity Reduction (%) Significant F ([3]; 50 µM, 48 h): 0% | Motor Activity Reduction (%) Slight F ([3]; 50 µM, 48 h): 0% | Dead Worms (%) M ([3]; 50 µM, 48 h): 0% | Motor Activity Reduction (%) Significant M ([3]; 50 µM, 48 h): 0% | Motor Activity Reduction (%) Slight M ([3]; 50 µM, 48 h): 0% | Dead Worms (%) F ([3]; 50 µM, 72 h): 0% | Motor Activity Reduction (%) Significant F ([3]; 50 µM, 72 h): 0% | Motor Activity Reduction (%) Slight F ([3]; 50 µM, 72 h): 0% | Dead Worms (%) M ([3]; 50 µM, 72 h): 0% | Motor Activity Reduction (%) Significant M ([3]; 50 µM, 72 h): 0% | Motor Activity Reduction (%) Slight M ([3]; 50 µM, 72 h): 0% | Dead Worms (%) F ([3]; 50 µM, 96 h): 0% | Motor Activity Reduction (%) Significant F ([3]; 50 µM, 96 h): 0% | Motor Activity Reduction (%) Slight F ([3]; 50 µM, 96 h): 0% | Dead Worms (%) M ([3]; 50 µM, 96 h): 0% | Motor Activity Reduction (%) Significant M ([3]; 50 µM, 96 h): 0% | Motor Activity Reduction (%) Slight M ([3]; 50 µM, 96 h): 0% | activity against S. mansoni adult worms (in words) [3]: loss of biological activity against S. mansoni
